Reference: patent publication US5358947A, “Angiotensin II receptor blocking 2,3-substituted pyrazolo[1,5-a]-1,3,5-triazin-4(3H)-ones” (American Cyanamid Company, priority 1993, dated 1994)
Several values for one entry are separate records, joined by “and”; a condition that tells them apart may be missing. Identical values can stand only once.

Tested on: ANGIOTENSIN II (AII) VASOPRESSOR RESPONSE
Test: AII Challenge: angiotensin II (AII) vasopressor response in conscious rats
Assay type: in vivo
Design: Response After AII / Change / Average Change: unit not given here
Details: for Response After AII / Change / Control Before AII: individual rat; for Control Before AII: in mmHg (unit assumed); for % Inhibition / Average Change: n = 2
Procedure, shortened: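 Conscious male Okamoto-Aoki SHR (16-20 weeks, ~330 g), aorta/vena cava cannulated, challenged with AII 0.05 and 0.1 ug/kg i.v. before and at 30-300 min after compound dosed i.v., i.p. or orally. Systolic pressure rise expressed relative to each rat's predose response (100%).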

[1] = 10 mg/kg i.v., AII 0.05 mcg/kg, 30 min post dose
[2] = 10 mg/kg i.v., AII 0.05 mcg/kg, 30 min post dose, listed as Ex. 10
[3] = 10 mg/kg i.v., AII 0.05 mcg/kg, 60 min post dose
[4] = 10 mg/kg i.v., AII 0.05 mcg/kg, 60 min post dose, listed as Ex. 10
[5] = 10 mg/kg i.v., AII 0.1 mcg/kg, 30 min post dose
[6] = 10 mg/kg i.v., AII 0.1 mcg/kg, 30 min post dose, listed as Ex. 10
[7] = 10 mg/kg i.v., AII 0.1 mcg/kg, 60 min post dose
[8] = 10 mg/kg i.v., AII 0.1 mcg/kg, 60 min post dose, listed as Ex. 10
[9] = 20 mg/kg i.v., AII 0.05 mcg/kg, 90 min post dose
[10] = 20 mg/kg i.v., AII 0.05 mcg/kg, 90 min post dose, listed as Ex. 10
[11] = 20 mg/kg i.v., AII 0.05 mcg/kg, 120 min post dose
[12] = 20 mg/kg i.v., AII 0.05 mcg/kg, 120 min post dose, listed as Ex. 10
[13] = 20 mg/kg i.v., AII 0.05 mcg/kg, 180 min post dose
[14] = 20 mg/kg i.v., AII 0.05 mcg/kg, 180 min post dose, listed as Ex. 10
[15] = 20 mg/kg i.v., AII 0.05 mcg/kg, 240 min post dose
[16] = 20 mg/kg i.v., AII 0.05 mcg/kg, 240 min post dose, listed as Ex. 10
[17] = 20 mg/kg i.v., AII 0.05 mcg/kg, 300 min post dose, listed as Ex. 10
[18] = 20 mg/kg i.v., AII 0.05 mcg/kg, 300 min post dose
[19] = 20 mg/kg i.v., AII 0.1 mcg/kg, 90 min post dose
[20] = 20 mg/kg i.v., AII 0.1 mcg/kg, 90 min post dose, listed as Ex. 10
[21] = 20 mg/kg i.v., AII 0.1 mcg/kg, 120 min post dose
[22] = 20 mg/kg i.v., AII 0.1 mcg/kg, 120 min post dose, listed as Ex. 10
[23] = 20 mg/kg i.v., AII 0.1 mcg/kg, 180 min post dose, listed as Ex. 10
[24] = 20 mg/kg i.v., AII 0.1 mcg/kg, 180 min post dose
[25] = 20 mg/kg i.v., AII 0.1 mcg/kg, 240 min post dose, listed as Ex. 10
[26] = 20 mg/kg i.v., AII 0.1 mcg/kg, 240 min post dose
[27] = 20 mg/kg i.v., AII 0.1 mcg/kg, 300 min post dose
[28] = 20 mg/kg i.v., AII 0.1 mcg/kg, 300 min post dose, listed as Ex. 10

CCCCc1nc2cc(-c3ccccc3)nn2c(=O)n1Cc1ccc(-c2ccccc2-c2nnn[nH]2)cc1 [Example 10, 2-Butyl-7-phenyl-3-[[2'-(1H-tetrazol-5-yl)[1,1'-biphenyl]-4-yl]methyl]pyrazolo[1,5-a]-1,3,5-triazin-4(3H)-one]
Response After AII [1]: 235
Change [2]: 15 and 5
Response After AII [2]: 215
Control Before AII [2]: 220 and 210
% Inhibition [1]: 80%
Average Change [1]: 10
Control Before AII [3]: 210
Change [4]: 45 and 15
Response After AII [4]: 255 and 230
Control Before AII [4]: 215
% Inhibition [3]: 40%
Average Change [3]: 30
Response After AII [5]: 245
Control Before AII [5]: 210
Change [6]: 35 and 5
Response After AII [6]: 215
% Inhibition [5]: 60%
Average Change [5]: 20
Response After AII [7]: 250
Change [8]: 40 and 10
Response After AII [8]: 215
Control Before AII [8]: 210 and 205
% Inhibition [7]: 50%
Average Change [7]: 25
Change [9]: 10
Response After AII [10]: 205 and 215
Control Before AII [10]: 195 and 205
% Inhibition [9]: 80%
Average Change [9]: 10
Response After AII [11]: 210
Change [12]: 10 and 20
Response After AII [12]: 185
Control Before AII [12]: 175 and 190
% Inhibition [11]: 70%
Average Change [11]: 15
Control Before AII [13]: 185
Change [14]: 10 and 25
Response After AII [14]: 195 and 210
% Inhibition [13]: 65%
Average Change [13]: 17.5
Response After AII [15]: 190
Change [16]: 10 and 5
Response After AII [16]: 205
Control Before AII [16]: 195 and 185
% Inhibition [15]: 85%
Average Change [15]: 7.5
Change [17]: 30 and 15
Response After AII [17]: 220 and 195
Control Before AII [17]: 190 and 180
% Inhibition [18]: 55%
Average Change [18]: 22.5
Response After AII [19]: 210
Change [20]: 10 and 0
Response After AII [20]: 215
Control Before AII [20]: 205 and 210
% Inhibition [19]: 90%
Average Change [19]: 5
Response After AII [21]: 200
Change [22]: 5 and 10
Response After AII [22]: 205
Control Before AII [22]: 200 and 190
% Inhibition [21]: 85%
Average Change [21]: 7.5
Change [23]: 20 and 15
Response After AII [23]: 210 and 200
Control Before AII [23]: 190 and 185
% Inhibition [24]: 65%
Average Change [24]: 17.5
Change [25]: 17 and 10
Response After AII [25]: 217 and 195
Control Before AII [25]: 200 and 185
% Inhibition [26]: 73%
Average Change [26]: 13.5
Change [27]: 30
Response After AII [27]: 235
Response After AII [28]: 205
Control Before AII [28]: 205 and 175
% Inhibition [27]: 40%
Average Change [27]: 30
